Molecular target: T1, Recombinant human liver GK1 (GST-GK) (Homo sapiens, UniProt P35557)
T1 construct: made in house; host or cells: E. coli
T1 sequence (P35557 1-466 isoform P35557-2): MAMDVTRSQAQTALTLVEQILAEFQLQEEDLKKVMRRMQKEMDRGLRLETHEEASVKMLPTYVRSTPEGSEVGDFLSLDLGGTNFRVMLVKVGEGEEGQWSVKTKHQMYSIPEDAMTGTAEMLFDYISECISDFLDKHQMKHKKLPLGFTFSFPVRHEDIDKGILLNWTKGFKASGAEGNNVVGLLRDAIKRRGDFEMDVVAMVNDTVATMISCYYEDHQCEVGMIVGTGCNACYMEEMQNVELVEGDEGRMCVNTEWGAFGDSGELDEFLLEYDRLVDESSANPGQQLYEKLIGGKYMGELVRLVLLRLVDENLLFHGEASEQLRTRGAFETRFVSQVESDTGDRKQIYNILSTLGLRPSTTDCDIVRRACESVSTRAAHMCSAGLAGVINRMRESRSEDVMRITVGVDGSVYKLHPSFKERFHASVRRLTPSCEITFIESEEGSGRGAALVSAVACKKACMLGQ
Experiment: In vitro glucokinase activity (G6PDH-coupled NADH assay)
Assay type: biochemical
Conditions: 30° C., 5 mM D-glucose, 10% DMSO
Summary of the method: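 Activation measured as the rate of OD340 rise from G6PDH-coupled NADH production, relative to 10% DMSO control, reported as SC1.5 (concentration for 50% activity increase). Conditions: 30° C, pH 7.1 Hepes, 5 mM glucose, 1 mM ATP, purified recombinant GST-human GK1, compound preincubated 10 min before enzyme addition.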

Going from `CCOc1ccc(F)c(OC2=CC(=O)N([C@@H](CC(C)C)C(=O)Nc3ccn(C[C@@H](O)CO)n3)C2)c1F` [Example 117, (S)-2-[4-(3-Ethoxy-2,6-difluoro-phenoxy)-2-oxo-2,5-dihydro-pyrrol-1-yl]-4-methyl-pentanoic acid [1-((R)-2,3-dihydroxy-propyl)-1H-pyrazol-3-yl]-amide] to `COc1ccc(F)c(OC2=CC(=O)N([C@@H](CC(C)C)C(=O)Nc3ccn(C[C@@H]4COC(C)(C)O4)n3)C2)c1F` [Example 118, (S)-2-[4-(2,6-Difluoro-3-methoxy-phenoxy)-2-oxo-2,5-dihydro-pyrrol-1-yl]-4-methyl-pentanoic acid [1-((R)-2,2-dimethyl-[1,3]dioxolan-4-yl-methyl)-1H-pyrazol-3-yl]-amide], the “SC1.5 (concentration of activator that produced a 50% increase in the activity of GK)” value rises from 0.034 µM to 0.256 µM (7.5-fold).

Going from `O=C(Nc1ccn(C[C@@H](O)CO)n1)[C@@H](CC1CCC1)N1CC(Oc2ccccc2Cl)=CC1=O` [Example 177, (R)-2-[4-(2-chloro-phenoxy)-2-oxo-2,5-dihydro-pyrrol-1-yl]-3-cyclobutyl-N-[1-((R)-2,3-dihydroxy-propyl)-1H-pyrazol-3-yl]-propionamide] to `CC(C)(O)Cn1ccc(NC(=O)[C@H](C[C@H]2C[C@H](C)C2)N2CC(Oc3ccccc3Cl)=CC2=O)n1` (single isomer, unassigned) [Example 215], the “SC1.5 (concentration of activator that produced a 50% increase in the activity of GK)” value falls from 4.725 µM to 0.014 µM (340-fold).

`COC1=CC(=O)N([C@@H](CC2CCCC2)C(=O)Nc2ncc(Cl)s2)C1` [Example 2, (S)-N-(5-Chloro-thiazol-2-yl)-3-cyclopentyl-2-(4-methoxy-2-oxo-2,5-dihydro-pyrrol-1-yl)-propionamide] and `COC(=O)c1ccc(NC(=O)[C@H](CC2CCCC2)N2CC(OC)=CC2=O)nc1` [Example 10, 6-[(S)-3-Cyclopentyl-2-(4-methoxy-2-oxo-2,5-dihydro-pyrrol-1-yl)-propionylamino]-nicotinic acid methyl ester] are within 1.5-fold of each other in “SC1.5 (concentration of activator that produced a 50% increase in the activity of GK)” value: 1.672 µM for the first, 1.855 µM for the second.

First: CCc1nsc(NC(=O)[C@H](CC(C)C)N2CC(Oc3ccccc3Cl)=CC2=O)n1 [Example 110, (S)-2-[4-(2-Chloro-phenoxy)-2-oxo-2,5-dihydro-pyrrol-1-yl]-4-methyl-pentanoic acid (3-ethyl-[1,2,4]thiadiazol-5-yl)-amide]
Second: Cc1ccccc1OC1=CC(=O)N([C@@H](CC(C)C)C(=O)Nc2ccn(CCO)n2)C1 [Example 122, (S)-4-Methyl-2-(2-oxo-4-o-tolyloxy-2,5-dihydro-pyrrol-1-yl)-pentanoic acid [1-(2-hydroxy-ethyl)-1H-pyrazol-3-yl]-amide]
The “SC1.5 (concentration of activator that produced a 50% increase in the activity of GK)” value of the first is 6.2-fold higher: 3.478 µM for the first, 0.56 µM for the second.

`CC(C)(O)Cn1ccc(NC(=O)[C@H](CC2CCCCC2)N2CC(Oc3cc(Cl)ccc3Cl)=CC2=O)n1` [Example 201, (S)-3-cyclohexyl-2-[4-(2,5-dichloro-phenoxy)-2-oxo-2,5-dihydro-pyrrol-1-yl]-N-[1-(2-hydroxy-2-methyl-propyl)-1H-pyrazol-3-yl]-propionamide] and `CC(C)(O)Cn1ccc(NC(=O)[C@H](CC2CCCCC2)N2CC(Oc3cccc(Cl)c3)=CC2=O)n1` [Example 207, (S)-2-[4-(3-chloro-phenoxy)-2-oxo-2,5-dihydro-pyrrol-1-yl]-3-cyclohexyl-N-[1-(2-hydroxy-2-methyl-propyl)-1H-pyrazol-3-yl]-propionamide] are within 1.5-fold of each other in “SC1.5 (concentration of activator that produced a 50% increase in the activity of GK)” value: 0.013 µM for the first, 0.018 µM for the second.

Compared with `CC(C)C[C@@H](C(=O)Nc1ccn(C[C@@H]2COC(C)(C)O2)n1)N1CC(Oc2ccccc2Br)=CC1=O` [Example 136, (S)-2-[4-(2-Bromo-phenoxy)-2-oxo-2,5-dihydro-pyrrol-1-yl]-4-methyl-pentanoic acid [1-((R)-2,2-dimethyl-[1,3]dioxolan-4-yl-methyl)-1H-pyrazol-3-yl]-amide], `CC(C)C[C@@H](C(=O)Nc1ccn(C[C@@H]2COC(C)(C)O2)n1)N1CC(Oc2cccc(Br)c2F)=CC1=O` [Example 128, (S)-2-[4-(3-Bromo-2-fluoro-phenoxy)-2-oxo-2,5-dihydro-pyrrol-1-yl]-4-methyl-pentanoic acid [1-((R)-2,2-dimethyl-[1,3]dioxolan-4-yl-methyl)-1H-pyrazol-3-yl]-amide] is 5.7-fold lower in “SC1.5 (concentration of activator that produced a 50% increase in the activity of GK)” value: 2.013 µM for the first, 0.351 µM for the second.

Compared with `COc1ccccc1OC1=CC(=O)N([C@@H](CC2CCCCC2)C(=O)Nc2ccn(C)n2)C1` [Example 29, (S)-3-Cyclohexyl-N-(1-methyl-1H-pyrazol-3-yl)-2-[4-(2-methoxy-phenoxy)-2-oxo-2,5-dihydro-pyrrol-1-yl]-propionamide], `Cl.Cn1ccc(NC(=O)[C@H](CC2CCCCC2)N2CC(Oc3ccccc3C(F)(F)F)=CC2=O)n1` [Example 90, (S)-3-Cyclohexyl-N-(1-methyl-1H-pyrazol-3-yl)-2-[2-oxo-4-(2-trifluoromethyl-phenoxy)-2,5-dihydro-pyrrol-1-yl]-propionamide Hydrochloride] is 2.7-fold higher in “SC1.5 (concentration of activator that produced a 50% increase in the activity of GK)” value: 0.033 µM for the first, 0.088 µM for the second.

Going from `COC1=CC(=O)N([C@@H](CC2CCCC2)C(=O)Nc2ccn(Cc3cccc(C#N)c3)n2)C1` [Example 12, (S)-N-[1-(3-Cyano-benzyl)-1H-pyrazol-3-yl]-3-cyclopentyl-2-(4-methoxy-2-oxo-2,5-dihydro-pyrrol-1-yl)-propionamide] to `COc1cccc(OC2=CC(=O)N([C@@H](CC3CCCCC3)C(=O)Nc3ccn(CC(C)(C)O)n3)C2)c1` [Example 208, (S)-3-cyclohexyl-N-[1-(2-hydroxy-2-methyl-propyl)-1H-pyrazol-3-yl]-2-[4-(3-methoxy-phenoxy)-2-oxo-2,5-dihydro-pyrrol-1-yl]-propionamide], the “SC1.5 (concentration of activator that produced a 50% increase in the activity of GK)” value falls from 3.591 µM to 0.012 µM (300-fold).

First: CC(C)(O)Cn1ccc(NC(=O)[C@H](CC2CCCCC2)N2CC(Oc3cccc(F)c3F)=CC2=O)n1 [Example 200, (S)-3-cyclohexyl-2-[4-(2,3-difluoro-phenoxy)-2-oxo-2,5-dihydro-pyrrol-1-yl]-N-[1-(2-hydroxy-2-methyl-propyl)-1H-pyrazol-3-yl]-propionamide]
Second: CCCc1ccccc1OC1=CC(=O)N([C@@H](CC2CCCCC2)C(=O)Nc2ccn(CC(C)(C)O)n2)C1 [Example 198, (S)-3-cyclohexyl-N-[1-(2-hydroxy-2-methyl-propyl)-1H-pyrazol-3-yl]-2-[2-oxo-4-(2-propyl-phenoxy)-2,5-dihydro-pyrrol-1-yl]-propionamide]
The “SC1.5 (concentration of activator that produced a 50% increase in the activity of GK)” value of the first is 5.1-fold lower: 0.011 µM for the first, 0.056 µM for the second.

Going from `CC(C)C[C@@H](C(=O)Nc1cnccn1)N1CC(Oc2ccc(C[C@H](O)CO)cc2)=CC1=O` [Example 244, (S)-2-{4-[4-((S)-2,3-Dihydroxy-propyl)-phenoxy]-2-oxo-2,5-dihydro-pyrrol-1-yl}-4-methyl-pentanoic acid pyrazin-2-ylamide] to `CC(C)C[C@@H](C(=O)Nc1cnccn1)N1CC(Oc2cccc(CC(C)(C)O)c2)=CC1=O` [Example 246, (S)-2-{4-[3-(2-Hydroxy-2-methyl-propyl)-phenoxy]-2-oxo-2,5-dihydro-pyrrol-1-yl}-4-methyl-pentanoic acid pyrazin-2-ylamide], the “SC1.5 (concentration of activator that produced a 50% increase in the activity of GK)” value rises from 0.158 µM to 1.708 µM (11-fold).

Going from `CC(C)C[C@@H](C(=O)Nc1ccn(CC(C)(C)O)n1)N1CC(Oc2cccc(O)c2N)=CC1=O` [Example 241, (S)-2-[4-(2-Amino-3-hydroxy-phenoxy)-2-oxo-2,5-dihydro-pyrrol-1-yl]-4-methyl-pentanoic acid [1-(2-hydroxy-2-methyl-propyl)-1H-pyrazol-3-yl]-amide] to `CC(C)(O)Cn1ccc(NC(=O)C(CC2CCOCC2)N2CC(Oc3c(F)cccc3F)=CC2=O)n1` (stereo not shown) [Example 42, 2-[4-(2,6-Difluoro-phenoxy)-2-oxo-2,5-dihydro-pyrrol-1-yl]-N-[1-(2-hydroxy-2-methyl-propyl)-1H-pyrazol-3-yl]-3-(tetrahydro-pyran-4-yl)-propionamide], the “SC1.5 (concentration of activator that produced a 50% increase in the activity of GK)” value falls from 2.458 µM to 0.148 µM (17-fold).

With `COC1=CC(=O)N([C@@H](CC2CCCC2)C(=O)Nc2ccn(CC(C)(C)OC)n2)C1` [Example 5, (S)-3-Cyclopentyl-N-[1-(2-methoxy-2-methyl-propyl)-1H-pyrazol-3-yl]-2-(4-methoxy-2-oxo-2,5-dihydro-pyrrol-1-yl)-propionamide] the “SC1.5 (concentration of activator that produced a 50% increase in the activity of GK)” value was 3.15 µM.

`CC(C)C[C@@H](C(=O)Nc1nc(C2CC2)ns1)N1CC(Oc2ccccc2Cl)=CC1=O` [Example 105, (S)-2-[4-(2-Chloro-phenoxy)-2-oxo-2,5-dihydro-pyrrol-1-yl]-4-methyl-pentanoic acid (3-cyclopropyl-[1,2,4]thiadiazol-5-yl)-amide] was tested, and the “SC1.5 (concentration of activator that produced a 50% increase in the activity of GK)” value was greater than 30 µM.

Same assay, conditions: at 30 μM test compound

`CC(C)C[C@@H](C(=O)Nc1nc(C2CC2)ns1)N1CC(Oc2ccccc2Cl)=CC1=O` [Example 105, (S)-2-[4-(2-Chloro-phenoxy)-2-oxo-2,5-dihydro-pyrrol-1-yl]-4-methyl-pentanoic acid (3-cyclopropyl-[1,2,4]thiadiazol-5-yl)-amide] was tested, and the “fold act. @ 30 μM” value was 1.4 fold.

Reference: patent US7741327B2 (Hoffmann-La Roche Inc., priority 2008, dated 2010)
